Test results as given in patent US10004701B2, “Methods and compositions for treating infection” (UNIVERSITY OF ROCHESTER, priority 2012, dated 2018).
Counter-ions that a name gives are not always drawn. Like-named read-outs stand apart in the source and are kept apart here.

Key:
Assay in all cases: AK assay 384-well format, Prestwick library screening
[1] = system: P. aeruginosa; type: cell-based, Pseudomonas aeruginosa; details: 50 μM final drug concentration; for fold induction at 50 µM: Pseudomonas aeruginosa, 3 h
[2] = system: E. cloacae; type: cell-based, Enterobacter cloacae; details: 50 μM final drug concentration; for fold induction at 50 µM: Enterobacter cloacae, 3 h
[3] = system: S. aureus strain USA300-0114; type: cell-based, Staphylococcus aureus; details: 50 μM final drug concentration; for fold induction at 50 µM: Staphylococcus aureus, USA300, 3 h
[4] = system: E. faecium; type: cell-based, Enterococcus faecium; details: 50 μM final drug concentration; for fold induction at 50 µM: Enterococcus faecium, 3 h
[5] = system: A. baumannii strain 98-37-09; type: cell-based, Acinetobacter baumannii; details: 50 μM final drug concentration; for fold induction at 50 µM: Acinetobacter baumannii, 983709, 3 h
[6] = system: E. coli; type: cell-based, Escherichia coli; details: 50 μM final drug concentration; for fold induction at 50 µM: Escherichia coli, 3 h
[7] = system: K. pneumoniae; type: cell-based, Klebsiella pneumoniae; details: 50 μM final drug concentration; for fold induction at 50 µM: Klebsiella pneumoniae, 3 h
[8] = planktonic P. aeruginosa, 384-well, cutoff for positive-scoring molecules 3-fold increase, read-out: AK-based Prestwick Library Screening Results: P. aeruginosa (increase in extracellular AK activity)
[9] = planktonic E. cloacae, 384-well, cutoff for positive-scoring molecules 3-fold increase, read-out: AK-based Prestwick Library Screening Results: E. cloacae (increase in extracellular AK activity)
[10] = planktonic S. aureus, 384-well, cutoff for positive-scoring molecules 3-fold increase, read-out: AK-based Prestwick Library Screening Results: S. aureus (increase in extracellular AK activity)
[11] = planktonic E. faecium, 384-well, cutoff for positive-scoring molecules 3-fold increase, read-out: AK-based Prestwick Library Screening Results: E. faecium (increase in extracellular AK activity)
[12] = planktonic A. baumannii, 384-well, cutoff for positive-scoring molecules 3-fold increase, read-out: AK-based Prestwick Library Screening Results: A. baumannii (increase in extracellular AK activity)
[13] = planktonic E. coli, 384-well, cutoff for positive-scoring molecules 3-fold increase, read-out: AK-based Prestwick Library Screening Results: E. coli (increase in extracellular AK activity)
[14] = planktonic K. pneumoniae, 384-well, cutoff for positive-scoring molecules 3-fold increase, read-out: AK-based Prestwick Library Screening Results: K. pneumoniae (increase in extracellular AK activity)
[15] = 384-well format, cutoff for positive-scoring molecules 3-fold increase, read-out: AK-based Prestwick Library Screening Results, P. aeruginosa (increase in extracellular AK activity)
[16] = 384-well format, cutoff for positive-scoring molecules 3-fold increase, read-out: AK-based Prestwick Library Screening Results, E. cloacae (increase in extracellular AK activity)
[17] = 384-well format, cutoff for positive-scoring molecules 3-fold increase, read-out: AK-based Prestwick Library Screening Results, S. aureus (increase in extracellular AK activity)
[18] = 384-well format, cutoff for positive-scoring molecules 3-fold increase, read-out: AK-based Prestwick Library Screening Results, E. faecium (increase in extracellular AK activity)
[19] = 384-well format, cutoff for positive-scoring molecules 3-fold increase, read-out: AK-based Prestwick Library Screening Results, A. baumannii (increase in extracellular AK activity)
[20] = 384-well format, cutoff for positive-scoring molecules 3-fold increase, read-out: AK-based Prestwick Library Screening Results, K. pneumoniae (increase in extracellular AK activity)

CN1[C@@H]2C[C@@H](OC(=O)[C@H](CO)c3ccccc3)C[C@H]1[C@@H]1O[C@@H]12 [Scopolamine hydrochloride]
fold induction at 50 µM ([1]; […], read-out: AK-based Prestwick Library Screening Results, P. aeruginosa (fold increase in extracellular AK activity)): 1.1
fold induction at 50 µM ([2]; […], read-out: AK-based Prestwick Library Screening Results, E. cloacae (fold increase in extracellular AK activity)): 1.5
fold induction at 50 µM ([3]; […], read-out: AK-based Prestwick Library Screening Results, S. aureus (fold increase in extracellular AK activity)): 1.2
fold induction at 50 µM ([4]; […], read-out: AK-based Prestwick Library Screening Results, E. faecium (fold increase in extracellular AK activity)): 1
fold induction at 50 µM ([5]; […], read-out: AK-based Prestwick Library Screening Results, A. baumannii (fold increase in extracellular AK activity)): 1.2
fold induction at 50 µM ([6]; […], read-out: AK-based Prestwick Library Screening Results, E. coli (fold increase in extracellular AK activity)): 1.2
fold induction at 50 µM ([7]; […], read-out: AK-based Prestwick Library Screening Results, K. pneumoniae (fold increase in extracellular AK activity)): 1.1

CCc1cccc(CC)c1NC(=O)CN(CC(=O)O)CC(=O)O [Etifenin]
fold induction at 50 µM ([1]; planktonic P. aeruginosa, cutoff for positive-scoring molecules 3-fold increase, read-out: AK-based Prestwick Library Screening Results, P. aeruginosa (increase in extracellular AK activity)): 0.9
fold induction at 50 µM ([2]; planktonic E. cloacae, cutoff for positive-scoring molecules 3-fold increase, read-out: AK-based Prestwick Library Screening Results, E. cloacae (increase in extracellular AK activity)): 1
fold induction at 50 µM ([3]; planktonic S. aureus, cutoff for positive-scoring molecules 3-fold increase, read-out: AK-based Prestwick Library Screening Results, S. aureus (increase in extracellular AK activity)): 0.5
fold induction at 50 µM ([4]; planktonic E. faecium, cutoff for positive-scoring molecules 3-fold increase, read-out: AK-based Prestwick Library Screening Results, E. faecium (increase in extracellular AK activity)): 0.9
fold induction at 50 µM ([5]; planktonic A. baumannii, cutoff for positive-scoring molecules 3-fold increase, read-out: AK-based Prestwick Library Screening Results, A. baumannii (increase in extracellular AK activity)): 0.9
fold induction at 50 µM ([6]; planktonic E. coli, cutoff for positive-scoring molecules 3-fold increase, read-out: AK-based Prestwick Library Screening Results, E. coli (increase in extracellular AK activity)): 1.1
fold induction at 50 µM ([7]; planktonic K. pneumoniae, cutoff for positive-scoring molecules 3-fold increase, read-out: AK-based Prestwick Library Screening Results, K. pneumoniae (increase in extracellular AK activity)): 0.8

COC(=O)Nc1nc2ccc(C(=O)c3ccccc3)cc2[nH]1 [Mebendazole]
fold induction at 50 µM [1, 8]: 0.8
fold induction at 50 µM [2, 9]: 1.2
fold induction at 50 µM [3, 10]: 0.9
fold induction at 50 µM [4, 11]: 0.9
fold induction at 50 µM [5, 12]: 0.7
fold induction at 50 µM [6, 13]: 0.8
fold induction at 50 µM [7, 14]: 0.8

CN1Cc2c(N)cccc2C(c2ccccc2)C1 (stereo not shown) [Nomifensine maleate]
fold induction at 50 µM [1, 15]: 0.8
fold induction at 50 µM [2, 16]: 1
fold induction at 50 µM [3, 17]: 0.7
fold induction at 50 µM [4, 18]: 0.9
fold induction at 50 µM [5, 19]: 0.8
fold induction at 50 µM ([6]; 384-well format, […], read-out: AK-based Prestwick Library Screening Results, E. coli (increase in extracellular AK activity)): 0.9
fold induction at 50 µM [7, 20]: 0.8

CC[C@@H](C)C(=O)O[C@H]1[C@H](O)[C@H]2[C@@H](CN3C[C@@H](C)CC[C@H]3[C@@]2(C)O)[C@@H]2C[C@]34O[C@]5(O)[C@@H](OC(=O)[C@@](C)(O)CC)CC[C@@]3(C)[C@@H]5[C@@H](OC(C)=O)[C@@H](OC(C)=O)[C@H]4[C@@]21O [Protoveratrine A]
AK-based Prestwick Library Screening Results, P. aeruginosa (fold increase in extracellular AK activity) ([1]; planktonic, […]): 1.1
AK-based Prestwick Library Screening Results, E. cloacae (fold increase in extracellular AK activity) ([2]; planktonic, […]): 1.3
AK-based Prestwick Library Screening Results, S. aureus (fold increase in extracellular AK activity) ([3]; planktonic, […]): 1.2
AK-based Prestwick Library Screening Results, E. faecium (fold increase in extracellular AK activity) ([4]; planktonic, […]): 1.0
AK-based Prestwick Library Screening Results, A. baumannii (fold increase in extracellular AK activity) ([5]; planktonic, […]): 1.2
AK-based Prestwick Library Screening Results, E. coli (fold increase in extracellular AK activity) ([6]; planktonic, […]): 1.1
AK-based Prestwick Library Screening Results, K. pneumoniae (fold increase in extracellular AK activity) ([7]; planktonic, […]): 1.2

CC[C@]12CCCN3CCc4c(n(c5ccccc45)[C@@](O)(C(=O)OC)C1)[C@@H]32 [Vincamine]
fold induction at 50 µM [1, 15]: 1
fold induction at 50 µM [2, 16]: 1.2
fold induction at 50 µM [3, 17]: 0.7
fold induction at 50 µM [4, 18]: 0.9
fold induction at 50 µM [5, 19]: 0.9
fold induction at 50 µM ([6]; 384-well format, cutoff for positive-scoring molecules 3-fold increase, read-out: AK-based Prestwick Library Screening Results, E. coli (increase in extracellular AK activity)): 0.9
fold induction at 50 µM [7, 20]: 0.7

CN(C)[C@@H]1C(O)=C(C(N)=O)C(=O)[C@@]2(O)C(O)=C3C(=O)c4c(O)cccc4[C@@](C)(O)[C@H]3[C@H](O)[C@@H]12 [Oxytetracycline dihydrate]
fold induction at 50 µM [1, 8]: 0.5
fold induction at 50 µM [2, 9]: 1.1
fold induction at 50 µM [3, 10]: 3.4
fold induction at 50 µM [4, 11]: 0.9
fold induction at 50 µM [5, 12]: 5.3
fold induction at 50 µM [6, 13]: 1
fold induction at 50 µM [7, 14]: 0.2

CC(C(=O)O)c1ccc(-c2ccccc2)c(F)c1 (stereo not shown) [Flurbiprofen]
fold induction at 50 µM ([1]; planktonic, cutoff for positive-scoring molecules 3-fold increase, read-out: AK-based Prestwick Library Screening Results, P. aeruginosa (fold increase in extracellular AK activity)): 0.8
fold induction at 50 µM ([2]; planktonic, cutoff for positive-scoring molecules 3-fold increase, read-out: AK-based Prestwick Library Screening Results, E. cloacae (fold increase in extracellular AK activity)): 1.6
fold induction at 50 µM ([3]; planktonic, cutoff for positive-scoring molecules 3-fold increase, read-out: AK-based Prestwick Library Screening Results, S. aureus (fold increase in extracellular AK activity)): 0.6
fold induction at 50 µM ([4]; planktonic, cutoff for positive-scoring molecules 3-fold increase, read-out: AK-based Prestwick Library Screening Results, E. faecium (fold increase in extracellular AK activity)): 0.9
fold induction at 50 µM ([5]; planktonic, cutoff for positive-scoring molecules 3-fold increase, read-out: AK-based Prestwick Library Screening Results, A. baumannii (fold increase in extracellular AK activity)): 0.9
fold induction at 50 µM ([6]; planktonic, cutoff for positive-scoring molecules 3-fold increase, read-out: AK-based Prestwick Library Screening Results, E. coli (fold increase in extracellular AK activity)): 0.8
fold induction at 50 µM ([7]; planktonic, cutoff for positive-scoring molecules 3-fold increase, read-out: AK-based Prestwick Library Screening Results, K. pneumoniae (fold increase in extracellular AK activity)): 0.7

Cc1ccc(C)c(OCCCC(C)(C)C(=O)O)c1 [Gemfibrozil]
fold induction at 50 µM [1, 8]: 1.2
fold induction at 50 µM [2, 9]: 1.5
fold induction at 50 µM [3, 10]: 0.9
fold induction at 50 µM [4, 11]: 1
fold induction at 50 µM [5, 12]: 1.3
fold induction at 50 µM [6, 13]: 1.3
fold induction at 50 µM [7, 14]: 0.9

CN1C(=O)CCS(=O)(=O)C1c1ccc(Cl)cc1 (stereo not shown) [Chlormezanone]
fold induction at 50 µM ([1]; planktonic P. aeruginosa, […], read-out: AK-based Prestwick Library Screening Results, P. aeruginosa (increase in extracellular AK activity)): 0.6
fold induction at 50 µM ([2]; planktonic E. cloacae, […], read-out: AK-based Prestwick Library Screening Results, E. cloacae (increase in extracellular AK activity)): 0.7
fold induction at 50 µM ([3]; planktonic S. aureus, […], read-out: AK-based Prestwick Library Screening Results, S. aureus (increase in extracellular AK activity)): 0.7
fold induction at 50 µM ([4]; planktonic E. faecium, […], read-out: AK-based Prestwick Library Screening Results, E. faecium (increase in extracellular AK activity)): 1
fold induction at 50 µM ([5]; planktonic A. baumannii, […], read-out: AK-based Prestwick Library Screening Results, A. baumannii (increase in extracellular AK activity)): 0.7
fold induction at 50 µM ([6]; planktonic E. coli, […], read-out: AK-based Prestwick Library Screening Results, E. coli (increase in extracellular AK activity)): 0.7
fold induction at 50 µM ([7]; planktonic K. pneumoniae, […], read-out: AK-based Prestwick Library Screening Results, K. pneumoniae (increase in extracellular AK activity)): 0.6
